{"source": "paper PMC6112376", "about": "“Comprehensive Analyses and Prioritization of Tox21 10K Chemicals Affecting Mitochondrial Function by in-Depth Mechanistic Studies” (Environmental Health Perspectives, 2018)", "key": {"[1]": {"tested_on": "HeLa cells expressing YFP-Parkin", "experiment": "Parkin translocation assay", "format": "cell-based, human", "conditions": "HeLa cells stably expressing YFP-Parkin; treated for 2 h"}, "[2]": {"tested_on": "Caenorhabditis elegans strain PE255", "experiment": "In vivo C. elegans ATP status assay", "conditions": "for minimal effective concentration: Caenorhabditis elegans, read-out: LEC LUM: lowest effect concentration for luminescence, a measure of nematode ATP content"}, "HepG2 cells [3]": {"tested_on": "HepG2 cells", "experiment": "Intracellular ATP content (cell viability) assay", "format": "cell-based, human", "conditions": "40 h treatment, mean±SD of three experiments; for ATP (HepG2, glucose) IC50: 5 mM glucose; for ATP (HepG2, galactose) IC50: 10 mM galactose"}, "[4]": {"tested_on": "Caenorhabditis elegans (Bristol N2)", "experiment": "C. elegans larval development and growth assay"}, "rat primary hepatocytes": {"tested_on": "rat primary hepatocytes", "experiment": "MMP assay in rat primary hepatocytes", "conditions": "for Rat hepatocytes (efficacy) (MMP): % of positive control, mean±SD of three experiments; for IC50: Rattus norvegicus, Hepatocyte; for MMP assays efficacy (%) Rat Hepatocytes: mean ± SD of three experiments"}, "hNSC": {"tested_on": "hNSC", "experiment": "MMP assay in human neural stem cells (hNSC)", "format": "cell-based", "conditions": "Homo sapiens, Neural stem cell; 1 h treatment; fresh re-sourced stocks; mean±SD of three experiments; read-out: hNSC IC50 (MMP)"}, "HepG2 cells [5]": {"tested_on": "HepG2 cells", "experiment": "cells", "conditions": "Homo sapiens; for Emax: HepG2, read-out: MMP assays efficacy (%) HepG2"}, "[6]": {"tested_on": "isolated rat liver mitochondria", "experiment": "Oxygen consumption, Clark-type oxygen electrode", "format": "biochemical", "conditions": "for I-ADP, % of control (O2 consumption rate): glutamate/malate driven state 3 respiration; for I-ADP, % of control (O2 consumption rate) / I-sub, % of control (O2 consumption rate) / II-ADP, % of control (O2 consumption rate) / II-sub, % of control (O2 consumption rate): isolated rat liver mitochondria; for I-sub, % of control (O2 consumption rate): glutamate/malate driven state 4 respiration; for II-ADP, % of control (O2 consumption rate): succinate-driven state 3 respiration; for II-sub, % of control (O2 consumption rate): succinate-driven state 4 respiration; for Potential Mechanism: mitochondrial respiration in isolated rat liver mitochondria, Clark type oxygen electrode, over tested concentrations"}, "HepG2 cells [7]": {"tested_on": "HepG2 cells", "experiment": "ROS-Glo hydrogen peroxide (ROS) assay", "format": "cell-based, human", "conditions": "Homo sapiens, HepG2; 2 h treatment; mean±SD of three experiments; read-out: ROS (HepG2) EC50"}, "[8]": {"tested_on": "Nrf2/ARE (ARE-bla HepG2 cells)", "experiment": "ARE β-lactamase reporter gene assay", "format": "cell-based, human", "conditions": "Homo sapiens, HepG2; 16 h incubation; mean±SD of three experiments; read-out: ARE (HepG2) EC50"}, "HepG2 cells [9]": {"tested_on": "HepG2 cells", "conditions": "cited from earlier work"}, "[10]": {"conditions": "1 h, read-out: Rat hepatocytes IC50 (MMP)"}, "[11]": {"conditions": "read-out: MMP assays IC50 (µM) Rat Hepatocytes"}, "[12]": {"conditions": "HepG2, 1 h, read-out: HepG2 IC50 Galactose (MMP)"}, "[13]": {"conditions": "HepG2, 1 h, read-out: HepG2 IC50 Glucose (MMP)"}, "[14]": {"conditions": "HepG2, read-out: MMP assays IC50 (µM) HepG2"}}, "note": "Read-outs that look alike come from different tables or passages of the source.", "data": [{"compound": "NNc1nc(-c2ccccc2)cs1", "note": "[2-Hydrazino-4-phenylthiazole]", "values": [{"measurement": "Parkin recruitment", "setting": "[1]", "value": "Inactive"}, {"measurement": "minimal effective concentration", "setting": "[2]", "value": 25, "unit": "µM"}, {"measurement": "ATP (HepG2, glucose) IC50", "setting": "HepG2 cells [3]", "value": "Inactive"}, {"measurement": "ATP (HepG2, galactose) IC50", "setting": "HepG2 cells [3]", "value": "Inactive"}, {"measurement": "LEC (lowest effect concentration), larval growth assay", "setting": "[4]; 48 h exposure", "value": "≤ 10", "unit": "µM"}, {"measurement": "minimal effective concentration", "setting": "[4]; Caenorhabditis elegans, read-out: LEC EXT: lowest effect concentration for extinction, a measure of nematode size", "value": 10, "unit": "µM"}, {"measurement": "Rat hepatocytes (efficacy) (MMP)", "setting": "rat primary hepatocytes", "value": "−57.1±16.9", "unit": "%"}, {"measurement": "IC50", "setting": "rat primary hepatocytes; [10]", "value": "54.7 ± 21.1", "unit": "µM"}, {"measurement": "IC50", "setting": "rat primary hepatocytes; [11]", "value": "21.5 ± 17.6", "unit": "µM"}, {"measurement": "MMP assays efficacy (%) Rat Hepatocytes", "setting": "rat primary hepatocytes", "value": "-81±30", "unit": "%"}, {"measurement": "IC50", "setting": "hNSC", "value": "14.2 ± 2.56", "unit": "µM"}, {"measurement": "IC50", "setting": "HepG2 cells [5]; [12]", "value": "48.2 ± 17.5", "unit": "µM"}, {"measurement": "IC50", "setting": "HepG2 cells [5]; [13]", "value": "37.1 ± 6.33", "unit": "µM"}, {"measurement": "IC50", "setting": "HepG2 cells [5]; [14]", "value": 10, "unit": "µM"}, {"measurement": "Emax", "setting": "HepG2 cells [5]", "value": 103, "unit": "%"}, {"measurement": "I-ADP, % of control (O2 consumption rate)", "setting": "[6]; 100 µM", "value": "94 (50.2) % of control"}, {"measurement": "I-sub, % of control (O2 consumption rate)", "setting": "[6]; 100 µM", "value": "119 (16.0) % of control"}, {"measurement": "II-ADP, % of control (O2 consumption rate)", "setting": "[6]; 100 µM", "value": "88 (59.2) % of control"}, {"measurement": "II-sub, % of control (O2 consumption rate)", "setting": "[6]; 100 µM", "value": "99 (21.4) % of control"}, {"measurement": "Potential Mechanism", "setting": "[6]", "value": "Inactive"}, {"measurement": "EC50", "setting": "HepG2 cells [7]", "value": "34.5 ± 28.8", "unit": "µM"}, {"measurement": "EC50", "setting": "[8]", "value": "6.92 ± 1.73", "unit": "µM"}, {"measurement": "MMP assays efficacy (%) qHTS-HepG2", "setting": "HepG2 cells [9]", "value": "-118±14", "unit": "%"}, {"measurement": "IC50", "setting": "HepG2 cells [9]; read-out: MMP assays IC50 (µM) qHTS-HepG2", "value": "2.32 ± 0.79", "unit": "µM"}]}, {"compound": "O=C(O)c1cccnc1Nc1cccc(C(F)(F)F)c1", "note": "[Niflumic acid, reference compound]", "values": [{"measurement": "Parkin recruitment", "setting": "[1]", "value": "Inactive"}, {"measurement": "effect on ATP content (in words)", "setting": "[2]; 0.5–100μM, 24 h exposure", "value": "statistically significant decreases in ATP content"}, {"measurement": "minimal effective concentration", "setting": "[2]", "value": 100, "unit": "µM"}, {"measurement": "ATP (HepG2, glucose) IC50", "setting": "HepG2 cells [3]", "value": "Inactive"}, {"measurement": "ATP (HepG2, galactose) IC50", "setting": "HepG2 cells [3]", "value": "Inactive"}, {"measurement": "effect on larval growth (in words)", "setting": "[4]; 0.5–100μM, 48 h exposure", "value": "did not affect growth"}, {"measurement": "Rat hepatocytes (efficacy) (MMP)", "setting": "rat primary hepatocytes", "value": "−98.8±9.27", "unit": "%"}, {"measurement": "IC50", "setting": "rat primary hepatocytes; [10]", "value": "19.9 ± 1.35", "unit": "µM"}, {"measurement": "IC50", "setting": "rat primary hepatocytes; [11]", "value": "6.71 ± 1.14", "unit": "µM"}, {"measurement": "MMP assays efficacy (%) Rat Hepatocytes", "setting": "rat primary hepatocytes", "value": "-127±56", "unit": "%"}, {"measurement": "IC50", "setting": "hNSC", "value": "38.3 ± 4.41", "unit": "µM"}, {"measurement": "IC50", "setting": "HepG2 cells [5]; [12]", "value": 42.8, "unit": "µM"}, {"measurement": "IC50", "setting": "HepG2 cells [5]; [13]", "value": "44.6 ± 3.02", "unit": "µM"}, {"measurement": "IC50", "setting": "HepG2 cells [5]; [14]", "value": 15.5, "unit": "µM"}, {"measurement": "Emax", "setting": "HepG2 cells [5]", "value": 114, "unit": "%"}, {"measurement": "I-ADP, % of control (O2 consumption rate)", "setting": "[6]; 0.032 µM", "value": "91 (32.6) % of control"}, {"measurement": "I-sub, % of control (O2 consumption rate)", "setting": "[6]; 0.032 µM", "value": "116 (11.1) % of control"}, {"measurement": "II-ADP, % of control (O2 consumption rate)", "setting": "[6]; 0.032 µM", "value": "90 (48.1) % of control"}, {"measurement": "II-sub, % of control (O2 consumption rate)", "setting": "[6]; 0.032 µM", "value": "110 (18.1) % of control"}, {"measurement": "I-ADP, % of control (O2 consumption rate)", "setting": "[6]; 0.16 µM", "value": "82 (29.2) % of control"}, {"measurement": "I-sub, % of control (O2 consumption rate)", "setting": "[6]; 0.16 µM", "value": "111 (10.7) % of control"}, {"measurement": "II-ADP, % of control (O2 consumption rate)", "setting": "[6]; 0.16 µM", "value": "101 (54.0) % of control"}, {"measurement": "II-sub, % of control (O2 consumption rate)", "setting": "[6]; 0.16 µM", "value": "124 (20.4) % of control"}, {"measurement": "I-ADP, % of control (O2 consumption rate)", "setting": "[6]; 0.8 µM", "value": "91 (32.5) % of control"}, {"measurement": "I-sub, % of control (O2 consumption rate)", "setting": "[6]; 0.8 µM", "value": "131 (12.6) % of control"}, {"measurement": "II-ADP, % of control (O2 consumption rate)", "setting": "[6]; 0.8 µM", "value": "89 (47.6) % of control"}, {"measurement": "II-sub, % of control (O2 consumption rate)", "setting": "[6]; 0.8 µM", "value": "135 (22.1) % of control"}, {"measurement": "I-ADP, % of control (O2 consumption rate)", "setting": "[6]; 4 µM", "value": "86 (30.8) % of control"}, {"measurement": "I-sub, % of control (O2 consumption rate)", "setting": "[6]; 4 µM", "value": "180 (17.3) % of control"}, {"measurement": "II-ADP, % of control (O2 consumption rate)", "setting": "[6]; 4 µM", "value": "96 (51.1) % of control"}, {"measurement": "II-sub, % of control (O2 consumption rate)", "setting": "[6]; 4 µM", "value": "221 (36.2) % of control"}, {"measurement": "I-ADP, % of control (O2 consumption rate)", "setting": "[6]; 20 µM", "value": "101 (36.0) % of control"}, {"measurement": "I-sub, % of control (O2 consumption rate)", "setting": "[6]; 20 µM", "value": "380 (36.5) % of control"}, {"measurement": "II-ADP, % of control (O2 consumption rate)", "setting": "[6]; 20 µM", "value": "54 (28.9) % of control"}, {"measurement": "II-sub, % of control (O2 consumption rate)", "setting": "[6]; 20 µM", "value": "195 (32.0) % of control"}, {"measurement": "I-ADP, % of control (O2 consumption rate)", "setting": "[6]; 100 µM", "value": "70 (32.1) % of control"}, {"measurement": "I-sub, % of control (O2 consumption rate)", "setting": "[6]; 100 µM", "value": "234 (36.2) % of control"}, {"measurement": "II-ADP, % of control (O2 consumption rate)", "setting": "[6]; 100 µM", "value": "23 (16.4) % of control"}, {"measurement": "II-sub, % of control (O2 consumption rate)", "setting": "[6]; 100 µM", "value": "56 (17.7) % of control"}, {"measurement": "Potential Mechanism", "setting": "[6]", "value": "Uncoupler at low concentrations (0.16-4 µM), and Uncoupler + inhibitor at high concentrations ( 20-100 µM)"}, {"measurement": "EC50", "setting": "HepG2 cells [7]", "value": "6.35 ± 2.16", "unit": "µM"}, {"measurement": "EC50", "setting": "[8]", "value": "25.1 ± 2.05", "unit": "µM"}, {"measurement": "MMP assays efficacy (%) qHTS-HepG2", "setting": "HepG2 cells [9]", "value": "-113±5", "unit": "%"}, {"measurement": "IC50", "setting": "HepG2 cells [9]; read-out: MMP assays IC50 (µM), qHTS-HepG2", "value": "13 ± 2.17", "unit": "µM"}]}]}
